According to patent publication US12384800B2, “Antitumoral compounds” (priority 2017, dated 2025):

Assays:
HGC27 tumors = experiment: Human gastric xenograft, tumor volume
Description: (§7) Female athymic nu/nu mice (Harlan Laboratories Models, S.L. Barcelona, Spain or Envigo, Spain) were utilized for all experiments. Animal were housed in individually ventilated cages Sealsafe® Plus, Techniplast S.P.A.), up to ten per cage on a 12-hour light-dark cycle at 21-23° C. and 40-60% humidity. […] Animals were acclimated for at least 5 days prior to tumor implantation with a tumor cell suspension.
HGC27 cells were maintained in vitro at 37° C. with 5% CO2 in Iscove's Modified Dulbecco's Medium (Sigma Aldrich, Co). Culture cells were passage every 3 to 5 days on reaching confluence. Each animal was subcutaneously implanted (on the right flank using 26G needle and a 1 cc syringe) at 4-6 weeks of age with 5×10^6 HGC-27 cells suspended in 0.05 mL of a solution consisting of 50% Matrigel® (Corning Incorporated Life Sciences), 50% medium without serum or antibiotics.
(§8) Treatment tolerability was assessed by monitoring body weight evolution, clinical signs of systemic toxicity, as well as evidences of local damage in the injection site.
(§9) In Xenograft Studies with Other Cell Lines: • Tumor volume was calculated using the equation (a·b^2)/2, where a: length (longest diameter) and b: width (shortest diameter) were measured in mm by using digital caliper (Fowler Sylvac, S235PAT).
(§10) Treatments producing >20% lethality and/or 20% net body weight loss were considered toxic.

A2780 tumors = experiment: Human ovarian xenograft, tumor volume
Description: as §7
Culture cells were passaged every 3 to 5 days upon reaching confluence. Each animal was subcutaneously implanted (on the right flank using 26G needle and a 1 cc syringe) at 4-6 weeks of age with 10×10^6 A2780 cells suspended in 0.05 mL of a solution consisting of 50% Matrigel® (Corning Incorporated Life Sciences) and 50% medium without serum or antibiotics.
as §8, §9, §10

HT1080 tumors = experiment: Human fibrosarcoma xenograft, total diameter (tumor + leg)
Description: as §7
HT1080 cells were maintained in vitro at 37° C. with 5% CO2 in Minimum Essential Medium Eagle (MEME) (Sigma-Aldrich, Co). Each animal was orthotopically implanted into gastroecnemius muscle by an intramuscular injection using a 26G needle and a 1 cc syringe at 4-6 weeks of age, with 10×10^6 HT1080 cells, suspended in serum free medium, without antibiotics.
as §8
In xenograft studies with HT1080 cell line: • Total diameter (tumor+leg) measurements were determined by using digital caliper (Fowler Sylvac, S235PAT).
as §10

H460 tumors = experiment: Human lung (NSCLC) xenograft, tumor volume
Description: as §7
H460 cells were maintained in vitro at 37° C. with 5% CO2 in Dulbecco's Modified Eagle's Medium (Sigma-Aldrich, Co). Culture cells were passaged every 3 to 5 days upon reaching confluence. Each animal was subcutaneously implanted (on the right flank using 26G needle and a 1 cc syringe) at 4-6 weeks of age with 5×10^6 H460 cells suspended in 0.05 mL of a solution consisting of 50% Matrigel® (Corning Incorporated Life Sciences) and 50% medium without serum or antibiotics.
as §8, §9, §10
Tables and figures summarize the data obtained from complete experimental groups, i.e. those groups keeping the initial number of animals, n=8-10.

MDA-MB-231 tumors = experiment: Human breast xenograft, tumor volume
Description: as §7
MDA-MB-231 cells were maintained in vitro at 37° C. with 5% CO2 in Dulbecco's Modified Eagle's Medium (Sigma-Aldrich, Co). Culture cells were passaged every 3 to 5 days upon reaching confluence.
as §8, §9, §10

[1] = tested on: HT29 cells (colorectal adenocarcinoma); experiment: cells; conditions: HT29, SRB; for TGI: total cell growth inhibition; for TGI / CC50: 72 hours; for CC50: read-out: LC50, 50% net cell killing; for GI50: 72 hours treatment
Description: (§1) The aim of this assay is to evaluate the in vitro cytostatic (ability to delay or arrest tumor cell growth) or cytotoxic (ability to kill tumor cells) activity of the samples being tested.
(§2) A colorimetric assay, using sulforhodamine B (SRB) reaction has been adapted to provide a quantitative measurement of cell growth and viability (following the technique described by Skehan et al. J. Natl. Cancer Inst. 1990, 82, 1107-1112). Another colorimetric assay based on 3-(4,5-Dimethylthiazol-2-yl)-2,5-diphenyltetrazolium bromide (MTT) reduction to a purple formazan has been also used to assess the antiproliferative activity (following the technique described by Mosmann et al. J. Immunol. Meth. 1983, 65, 55-63).
(§3) These forms of assays employ 96-well cell culture microplates following the standards of the American National Standards Institute and the Society for Laboratory Automation and Screening (ANSI SLAS 1-2004 (R2012) Oct. 12, 2011. All the cell lines used in this study were obtained from the American Type Culture Collection (ATCC) and derive from different types of human cancer.
(§4) A549, HT29, MDA-MB-231 and PSN1 cells were maintained in Dulbecco's Modified Eagle Medium (DMEM) while PC-3 and 22Rv1 cells were maintained in Roswell Park Memorial Institute Medium (RPMI). All cell lines were supplemented with 10% Fetal Bovine Serum (FBS), 2 mM L-glutamine, 100 U/mL penicillin, and 100 […] at 37° C., 5% CO2 and 98% humidity. For the experiments, cells were harvested from subconfluent cultures using trypsinization and resuspended in fresh medium before counting and plating.
(§5) A549, HT29, MDA-MB-231 and PSN1 cells were seeded in 96 well microtiter plates, at 5000 cells per well in aliquots of 150 μL, and allowed to attach to the plate surface for 18 hours (overnight) in drug free medium. After that, one control (untreated) plate of each cell line was fixed (as described below) and used for time zero reference value. Culture plates were then treated with test compounds (50 μL aliquots of 4× stock solutions in complete culture medium plus 4% DMSO) using ten ⅖ serial dilutions (concentrations ranging from 10 to 0.003 μg/mL) and triplicate cultures (1% final concentration in DMSO). After 72 hours treatment, the antitumor effect was measured by using the SRB methodology: Briefly, cells were washed twice with PBS, fixed for 15 min in 1% glutaraldehyde solution at room temperature, rinsed twice in PBS, and stained in 0.4% SRB solution for 30 min at room temperature. Cells were then rinsed several times with 1% acetic acid solution and air-dried at room temperature.
(§6) Effects on cell growth and survival were estimated by applying the NCI algorithm (Boyd M R and Paull K D. Drug Dev. Res. 1995, 34, 91-104). The values obtained in triplicate cultures were fitted by nonlinear regression to a four-parameters logistic curve by nonlinear regression analysis.

[2] = tested on: A549 cells (lung carcinoma, NSCLC); experiment: cells; conditions: A549, SRB; for GI50: 72 hours treatment; for TGI: total cell growth inhibition; for TGI / CC50: 72 hours; for CC50: read-out: LC50, 50% net cell killing
Description: as §1, §2, §3, §4, §5, §6

[3] = tested on: MDA-MB-231 cells (breast adenocarcinoma); experiment: cells; conditions: MDA-MB-231, SRB; for GI50: 72 hours treatment; for TGI: total cell growth inhibition; for TGI / CC50: 72 hours; for CC50: read-out: LC50, 50% net cell killing
Description: as §1, §2, §3, §4, §5, §6

[4] = tested on: PSN1 cells (pancreas adenocarcinoma); experiment: cells; conditions: PSN1, SRB; for GI50: 72 hours treatment; for TGI: total cell growth inhibition; for TGI / CC50: 72 hours; for CC50: read-out: LC50, 50% net cell killing
Description: as §1, §2, §3, §4, §5, §6

Structure (SMILES): COc1c(C)cc2c(c1O)[C@@H]1[C@@H]3[C@@H]4SC[C@]5(N[C@@H](CN)Cc6c5[nH]c5ccccc65)C(=O)OC[C@@H](c5c6c(c(C)c(OC(C)=O)c54)OCO6)N3[C@@H](O)[C@H](C2)N1C [Compound 12-R]
- Median Tumor Volume (HGC27 tumors; Day 2): 413.3 mm^3
- Median Tumor Volume (HGC27 tumors; Day 5): 809.1 mm^3
- Median Tumor Volume (HGC27 tumors; Day 7): 1261.5 mm^3
- Median Tumor Volume (HGC27 tumors; Day 9): 1589.5 mm^3
- Median Tumor Volume (HGC27 tumors; Day 12): 2017.9 mm^3
- Median Tumor Volume (HGC27 tumors; Day 14): 2034.9 mm^3
- Median Tumor Volume (A2780 tumors; Day 2): 302.8 mm^3
- Median Tumor Volume (A2780 tumors; Day 5): 786.5 mm^3
- Median Tumor Volume (A2780 tumors; Day 7): 1113.3 mm^3
- Median Tumor Volume (A2780 tumors; Day 9): 1490.6 mm^3
- Median Tumor Volume (A2780 tumors; Day 12): 2025.00 mm^3
- Median Tumor Volume (A2780 tumors; Day 14): 2025.00 mm^3
- Total diameter (tumor + leg) (HT1080 tumors; Day 2): 8.9 mm
- Total diameter (tumor + leg) (HT1080 tumors; Day 5): 8.8 mm
- Total diameter (tumor + leg) (HT1080 tumors; Day 7): 9.5 mm
- Total diameter (tumor + leg) (HT1080 tumors; Day 9): 9.5 mm
- Total diameter (tumor + leg) (HT1080 tumors; Day 12): 11.0 mm
- Total diameter (tumor + leg) (HT1080 tumors; Day 14): 11.7 mm
- Total diameter (tumor + leg) (HT1080 tumors; Day 16): 12.9 mm
- Total diameter (tumor + leg) (HT1080 tumors; Day 19): 13.5 mm
- Total diameter (tumor + leg) (HT1080 tumors; Day 21): 15.5 mm
- Total diameter (tumor + leg) (HT1080 tumors; Day 23): 18.0 mm
- Median Tumor Volume (H460 tumors; Day 2): 410.7 mm^3
- Median Tumor Volume (H460 tumors; Day 5): 796.7 mm^3
- Median Tumor Volume (H460 tumors; Day 7): 1167.9 mm^3
- Median Tumor Volume (H460 tumors; Day 9): 1360.3 mm^3
- Median Tumor Volume (H460 tumors; Day 12): 1666.0 mm^3
- Median Tumor Volume (H460 tumors; Day 14): 2025.0 mm^3
- Median Tumor Volume (MDA-MB-231 tumors; Day 2): 223.0 mm^3
- Median Tumor Volume (MDA-MB-231 tumors; Day 5): 296.1 mm^3
- Median Tumor Volume (MDA-MB-231 tumors; Day 7): 378.3 mm^3
- Median Tumor Volume (MDA-MB-231 tumors; Day 9): 472.7 mm^3
- Median Tumor Volume (MDA-MB-231 tumors; Day 12): 609.9 mm^3
- Median Tumor Volume (MDA-MB-231 tumors; Day 14): 782.5 mm^3
- Median Tumor Volume (MDA-MB-231 tumors; Day 16): 972.4 mm^3
- Median Tumor Volume (MDA-MB-231 tumors; Day 19): 1211.0 mm^3
- Median Tumor Volume (MDA-MB-231 tumors; Day 21): 1463.4 mm^3
- Median Tumor Volume (MDA-MB-231 tumors; Day 23): 1756.5 mm^3
- Median Tumor Volume (MDA-MB-231 tumors; Day 26): 2028.6 mm^3

Structure (SMILES): COc1c(C)cc2c(c1O)[C@@H]1[C@@H]3[C@@H]4SC[C@]5(N[C@H](C)Cc6c5[nH]c5ccccc65)C(=O)OC[C@@H](c5c6c(c(C)c(OC(C)=O)c54)OCO6)N3[C@@H](C#N)[C@H](C2)N1C [A, reference compound]
- TGI [1]: 8.36E−09 Molar
- CC50 [1]: > 0.129 µM
- GI50 [2]: 0.00836 µM
- TGI [2]: 8.87E−09 Molar
- CC50 [2]: > 0.129 µM
- GI50 [3]: 0.00707 µM
- TGI [3]: 9.38E−09 Molar
- CC50 [3]: 0.0141 µM
- GI50 [4]: 0.0129 µM
- TGI [4]: 1.54E−08 Molar
- CC50 [4]: 0.0193 µM

Structure (SMILES): C=CCOC(=O)NC[C@H]1Cc2c([nH]c3ccc(OC)cc23)[C@@]2(CS[C@@H]3c4c(OC(C)=O)c(C)c5c(c4[C@H](COC2=O)N2[C@@H]3[C@H]3c4c(cc(C)c(OC)c4O)C[C@@H]([C@@H]2C#N)N3C)OCO5)N1 [Compound 25-R]
- GI50 [1]: 0.00154 µM
- TGI [1]: 2.76E−09 Molar
- CC50 [1]: > 0.11 µM
- GI50 [2]: 0.00132 µM
- TGI [2]: 2.43E−09 Molar
- CC50 [2]: 0.00992 µM
- TGI [3]: 2.54E−09 Molar
- CC50 [3]: 0.00838 µM
- TGI [4]: 2.32E−09 Molar
- CC50 [4]: 0.00673 µM

Structure (SMILES): C=CCOC(=O)NC[C@@H]1Cc2c([nH]c3ccc(OC)cc23)[C@@]2(CS[C@@H]3c4c(OC(C)=O)c(C)c5c(c4[C@H](COC2=O)N2[C@@H]3[C@H]3c4c(cc(C)c(OC)c4O)C[C@@H]([C@@H]2C#N)N3C)OCO5)N1 [Compound 25-S]
- GI50 [1]: 0.00717 µM
- TGI [1]: 7.72E−09 Molar
- CC50 [1]: > 0.11 µM
- GI50 [2]: 0.00717 µM
- TGI [2]: 7.61E−09 Molar
- CC50 [2]: > 0.11 µM
- GI50 [3]: 0.00584 µM
- TGI [3]: 9.04E−09 Molar
- CC50 [3]: 0.0154 µM
- GI50 [4]: 0.00684 µM
- TGI [4]: 9.26E−09 Molar
- CC50 [4]: 0.0143 µM

Structure (SMILES): COc1ccc2oc3c(c2c1)CCN[C@]31CS[C@@H]2c3c(OC(C)=O)c(C)c4c(c3[C@H](COC1=O)N1[C@@H]2[C@H]2c3c(cc(C)c(OC)c3O)C[C@@H]([C@@H]1C#N)N2C)OCO4 [Compound 34]
- GI50 [1]: 0.0541 µM
- TGI [1]: 8.55E−08 Molar
- CC50 [1]: 0.125 µM
- GI50 [2]: 0.0591 µM
- TGI [2]: 8.05E−08 Molar
- CC50 [2]: > 0.126 µM
- GI50 [3]: 0.0453 µM
- TGI [3]: 7.67E−08 Molar
- CC50 [3]: 0.112 µM
- GI50 [4]: 0.0541 µM
- TGI [4]: 5.91E−08 Molar
- CC50 [4]: > 0.126 µM

Structure (SMILES): COc1ccc2[nH]c3c(c2c1)C[C@H](CN)N[C@]31CS[C@@H]2c3c(OC(C)=O)c(C)c4c(c3[C@H](COC1=O)N1[C@@H]2[C@H]2c3c(cc(C)c(OC)c3O)C[C@@H]([C@@H]1C#N)N2C)OCO4 [Compound 26-R]
- GI50 [1]: 0.000729 µM
- TGI [1]: 1.58E−09 Molar
- CC50 [1]: > 0.122 µM
- GI50 [2]: 0.00194 µM
- TGI [2]: 3.40E−09 Molar
- CC50 [2]: > 0.122 µM
- GI50 [3]: 0.00117 µM
- TGI [3]: 1.22E−09 Molar
- CC50 [3]: 0.00146 µM
- GI50 [4]: 0.000972 µM
- TGI [4]: 1.70E−09 Molar
- CC50 [4]: 0.00352 µM

Structure (SMILES): COc1ccc2[nH]c3c(c2c1)C[C@@H](C(=O)O)N[C@]31CS[C@@H]2c3c(OC(C)=O)c(C)c4c(c3[C@H](COC1=O)N1[C@@H]2[C@H]2c3c(cc(C)c(OC)c3O)C[C@@H]([C@@H]1C#N)N2C)OCO4 [Compound 28-S, reference compound]
- GI50 [1]: 0.251 µM
- TGI [1]: 3.46E−07 Molar
- CC50 [1]: 0.633 µM
- GI50 [2]: 0.489 µM
- TGI [2]: >1.19E−06 Molar
- CC50 [2]: > 1.19 µM
- GI50 [3]: 0.167 µM
- TGI [3]: 2.51E−07 Molar
- CC50 [3]: 0.394 µM
- GI50 [4]: 0.251 µM
- TGI [4]: 3.94E−07 Molar
- CC50 [4]: 0.692 µM
